Structures are written as SMILES.

Take `O=[N+]([O-])c1ccc2c3c([nH]c2c1)CCCCCC3`: the melting point – broadly, the temperature, or range, at which the solid turns liquid – lay in the range of 119 to 120 °C.
The value for `O=c1c2ccc(Cl)cc2oc2c(OCc3ccccc3)cccc12` was 154 °C; that for `CCCC(NC(=O)CN1C(=O)N(c2ccc(C)cc2)C2(CCCCC2)C1=O)c1ccccc1` (centres undefined) was 208 to 210 °C.
As to `CC1COC(Nc2ccccc2)(c2ccnc(C(=O)c3ccc(Cl)cc3)c2)O1` (centres undefined), the melting point is 125 to 126 °C.
To `COc1cccc2c1C(NC(C)=O)=NS2(=O)=O` belongs 242 to 245 °C; to `Cc1cc(N2CCC=C(C(N)=O)C2)c2cccc(-c3ccc(Cl)cc3Cl)c2n1`, 230 to 232 °C; to `CCCC(=O)Nc1c(C)cccc1C`, 134 to 136 °C.
Take `COc1ccc(OC)c(NC(=O)NCC2(c3ccccc3)CCCCC2)c1`: the melting point is 164 to 166 °C.
`O=C(c1ccccc1)n1cc(-c2ccccc2)c2ccccc21`: the melting point is 154 to 156 °C.
The value for `CSc1c(C)c(-c2ncc(Cl)cc2F)nn1C` was 61 to 64 °C; that for `O=[N+]([O-])c1cc(S(=O)(=O)C(F)(F)F)[nH]c1-c1ccc(Cl)cc1` was 97 to 99 °C; that for `Fc1ccc(-c2ncn(CCCN3CCOCC3)c2-c2ccnc(Cl)c2)cc1` was 97 to 97.5 °C.
To `CCOc1ccc(F)cc1C(=O)c1sc2ncc(C#N)cc2c1N` belongs 196 °C; to `CCCC1=C(C(=O)OCC)C(c2ccccc2Cl)c2cn(C(=O)c3ccccc3)nc2N1` (centres undefined), 119 to 121 °C.
In the case of `Cc1ccc(-c2[nH]c(-c3cccc4ccccc34)nc2C(=O)Nc2nccs2)cc1`, the melting point lay within 228 to 229 °C.
The value for `CCOc1ccc2c(c1O)CCN(C(C)=O)[C@@H]2c1cc(Cl)cc(Cl)c1` was 238 to 241 °C.
To `CC(=O)c1ccc(Br)c(S(N)(=O)=O)c1` belongs 161 °C.
For `Nc1nc2ccc(Cl)cc2nc1N`, the melting point worked out at 290 °C.
The compound `CC(=O)Nc1c(C(=O)c2ccc(Cl)cc2)[nH]c2cc(Cl)ccc12` gave a melting point of 175 to 176 °C.
`NC(=O)NS(=O)(=O)c1ccccc1Cl` had a melting point of 160 to 163 °C.
The value for `COc1ccc2nc(CSc3cc(C)ccn3)[nH]c2c1` was 138 to 140 °C.
Consider `CCC1c2ccc(C#N)n2-c2cc(F)c(F)cc2N1S(=O)(=O)c1ccc(OC)c(C)c1` (centres undefined), for which the melting point was 153 to 155 °C.
To `CCOC(=O)N(CC)c1cccc(-c2ccnc3ccnn23)c1` belongs 79 to 81 °C; to `CS(=O)c1nccc(-c2cn(Cc3ccccc3C#N)c(=O)n2-c2ccc(F)cc2)n1` (centres undefined), 133 to 136 °C.
`ClCCOc1c2ccccc2c(OCCCl)c2ccccc12` came in with a melting point of 143 to 145 °C.
`CCNc1nc(=O)n(Cc2ccc(OC)c(OC3CCCC3)c2)c2nc(C(C)C)[nH]c12` gave a melting point of 110 to 115 °C.
Compound `Cn1nc2nc(C(C)(C)C)[nH]c(=O)c2c1N=Cc1ccccc1` had a melting point of 250 to 253 °C.
To `O=C(O)c1cccc2cc(Sc3cc(Cl)ncn3)ccc12` belongs 209 °C.
Consider `CCOC(=O)C(C)C(NC(C)=O)C(C(C)=O)C(=O)Nc1ccc(Cl)cc1` (centres undefined), for which the melting point is 169 to 173 °C.
The value for `CCCCNC(=O)NS(=O)(=O)c1ccc(CCNC(=O)N2CC(C)=C(C)C2=O)cc1` was 198 to 200 °C; that for `CN(Cc1cc2c3c(c1)c(=O)c(C(=O)NCc1ccc(Cl)cc1)cn3CC(=O)N2C)C[C@@H](O)c1nccs1` was 125 to 130 °C; that for `N#Cc1ccc(OCc2ccncc2)cc1OC(C(=O)O)c1ccccc1Cl` (racemic) was 225 to 226 °C.
To `CO/C(=C\C=C\c1cc2cc(Cl)c(Cl)cc2[nH]1)C(=O)O` belongs 249 to 250 °C.
For the compound `O=C(O)CCCC1CCCNC1` (centres undefined), the melting point was in the range of 208 to 210 °C.
In turn, `CCN1CC(=O)N(c2ccccc2C(F)(F)F)C1=S` came in with a melting point of 82 to 85 °C.
The value for `CCn1cc(C(=O)O)c(=O)c2cc(F)c(Cl)cc21` was 279 to 281 °C; that for `Cc1nc2c(CO)cccn2c(=O)c1CCN1CCC(c2noc3cc(F)ccc23)CC1` was 186 °C.
To `FC(F)(F)CN1CCOC(CN2c3ccccc3C=Cc3ccccc32)C1` (centres undefined) belongs 97 to 98 °C; to `COc1cc2[nH]c(=O)n(CCCS)c(=O)c2cc1OC`, 236 °C.
As for `c1cncc(Nc2ncc(-c3ccncn3)c(-c3ccco3)n2)c1`, the melting point came to 174 °C.
With `O=C(CCl)Nc1ccncc1O`, the melting point is 155 to 158 °C.
To `Cc1c(C(=O)Nc2cc(Cl)c(N3CCC(N4CCOCC4)CC3)c(Cl)c2)cnn1-c1ccc(C(F)(F)F)cc1` belongs 252 to 254 °C; to `Clc1ccccc1-c1n[nH]c(-c2ccccc2Cl)n1`, 159 to 160 °C.
To `CN(Cc1ccc(NC(=O)C2=Cc3cc(-c4ccc5c(c4)OCO5)ccc3S(=O)(=O)CC2)cc1)C1CCC(=O)CC1` belongs 219 to 223 °C; to `N#CNC(=Nc1ccncc1)NCCCCCOc1ccccc1`, 188 to 189 °C.
To `CC(C)C(=O)C(=Cc1cc(O)c(O)c([N+](=O)[O-])c1)c1ccccc1` belongs 151 to 156 °C.
`CS(=O)c1cc2ccccc2[nH]1` (centres undefined) returned a melting point of 140 to 144 °C.
`COc1ccc(N(CCCC(=O)O)C(=O)c2ccc(Cl)cc2)cc1-c1ccccc1` came in with a melting point of 114 to 116 °C.
To `NC(=O)COc1ccc2sc(S(N)(=O)=O)cc2c1` belongs 197 to 198 °C; to `CCCNC(C=Cc1ccccc1Cl)=NC#N`, 134 to 136 °C; to `O=C(Nc1ccc(Oc2ccnc(-n3ccnc3)n2)c2ccccc12)c1cc(F)cc(N2CCOCC2)c1`, 153 to 154 °C.
`CC(=O)N1c2cscc2C(=O)N(C)c2ccccc21` had a melting point of 197 to 199 °C.
In turn, `CC(C)(C)OC(=O)NCC(=O)Nc1ccc(Nc2cccc3c2C(=O)c2ccccc2C3=O)cc1` yielded a melting point of 171 °C.
The value for `COc1ccc2[nH]c(C(F)(F)F)cc2c1` was 60 °C.
The value for `Cc1ccc(NC(=O)C(C)(C)CCCOc2cc(C)ccc2C)c(C)c1` was 80 to 82 °C.
To `COc1ccc(S(=O)(=O)c2ncoc2C(C)C)cc1` belongs 98 to 100 °C; to `COC(=O)C(c1ccc(Br)cc1)(c1ccc(Br)cc1)c1ncc[nH]1`, 135 °C.
As to `CCCc1nccn1-c1nc(-c2ccc(Cl)cc2)c(CCCOc2ccccc2OC)o1`, the melting point was 89 to 90 °C.
The value for `CNC(=S)N1CCc2ncn(C)c2C1` was 235 °C; that for `Cc1ccc2c(c1O)NC(S(=O)O)C1CC(C=CC(N)=O)=CN1C2=O` (centres undefined) was 252 to 255 °C.
To `O=C(Nc1ccc(N2CCOCC2)c(C(F)(F)F)c1)c1ccc(F)c(OCc2cnc3ccccc3c2)c1` belongs 81 to 84 °C; to `COc1cc(-c2nc(C)c(C(C)=NNC(N)=O)s2)cc(OC)c1OC`, 240 to 242 °C; to `[O-][N+]1=C(c2ccccc2F)c2cc(Cl)ccc2N=C(C2CCCN2C=NO)C1` (centres undefined), 168 to 172 °C.
To `Cc1ccc(CCC(=O)NC(C)c2ccc(NS(C)(=O)=O)c(F)c2)cc1C` (centres undefined) belongs 176 to 177 °C; to `c1ccc(NCC2CCCO2)cc1` (centres undefined), 149 to 156 °C.
The compound `Cc1c(-c2ccc(C(C)C)cc2)oc2c(C(=O)O)cccc2c1=O` returned a melting point of 216 to 220 °C.
To `CCCC(=O)c1cnc2c(OCCOCCO)cccc2c1Nc1ccccc1C` belongs 144 to 146 °C.
The value for `CCOC[C@]1(OC)CC[C@H]2[C@@H]3CCC4=CC(=O)CCC4=C3[C@@H](c3ccc(C(C)=O)cc3)C[C@@]21C` was 134 to 137 °C; that for `COC(=O)c1cc(-c2c(OC)cccc2OC)n(-c2cc(C(=O)O)ccc2C)n1` was 189 °C.
To `C[C@H](O)CCC[C@H](O)CCCCCc1cc(O)cc(O)c1C(=O)O` belongs 116 to 118 °C; to `Cn1cc(-c2cc(-c3c[nH]nc3-c3ccccn3)ccc2F)cn1`, 134 to 136 °C.
`N#Cc1[nH]c(Br)c(-c2ccc(Cl)cc2)c1Br`: the melting point lay in the range of 191 to 194 °C.
The value for `COC(=S)c1cc(C)nc(Cl)n1` was 90 to 92 °C; that for `Cc1coc2c1C(C)(O)C1=C(CCCC1C)C2=O` (centres undefined) was 139 to 141 °C; that for `CCCC(=O)c1cnc2c(NCCCN3CCOCC3)cccc2c1Nc1ccccc1C` was 110 to 111 °C.
To `Cc1nc(C)n(-c2cc([C@@H]3C[C@H]3c3nc4ccccc4n3C)nc(C#N)n2)n1` (relative stereo) belongs 229 to 231 °C.
For the compound `NS(=O)(=O)c1ccc(-n2nc(CCCNC(=O)Nc3ccc(Cl)cc3)cc2-c2ccccc2)cc1`, the melting point fell in the range of 103 to 110 °C.
To `CCn1ncc2c(NCc3ccc(OC)c(OC)c3)c3ccccc3nc21` belongs 169 to 171 °C; to `CC(C)(C)OC(=O)NCCC[C@H](NC(=O)OC(C)(C)C)C(=O)OC(C)(C)C`, 80 to 82 °C.
The compound `N=C(NO)c1cccc2c1nc(-c1c(F)cccc1F)n2Cc1c(F)cccc1F` gave a melting point of 214 to 216 °C.
To `CC(=O)Nc1ccc(NCc2cnc3nc(N)nc(N)c3n2)cc1` belongs more than 260 °C; to `C=CCc1c(O)ccc2c(=O)cc(C(=O)OCC)oc12`, 164 to 165 °C.
To `O=C(Cl)N(OCc1ccccc1)C1c2ccccc2Oc2ccccc21` belongs 117 °C; to `CCCCCCC1CC(=O)C2=C(C1)NC(=O)CC2` (centres undefined), 142 to 144 °C.
As for `O=C(O)c1ccc(-c2ccccc2OC2OC(CO)C(O)C(O)C2O)cc1` (centres undefined), the melting point is 248 to 249 °C.
As to `N#CC(Oc1nsnc(Cl)c1=O)c1cccc(Oc2ccccc2)c1` (centres undefined), the melting point fell in the range of 146 to 148 °C.
The value for `COC(=O)c1nc(Br)c(F)c(N)c1Cl` was 119 to 120 °C; that for `O=c1ccn(CCOCc2ccccc2)c(C(O)c2ccccc2)c1OCc1ccccc1` (centres undefined) was 154 to 155 °C.
The value for `OCc1nnc2n1-c1ccc(Cl)cc1C(c1ccccc1)=NC2` was 204 to 206 °C.

(Values after a melting point compilation (Tetko et al.; mined from patent text by program, amines drawn as free bases though some values may be those of a salt).)
